In ChEMBL document CHEMBL3525974 (Drug Metab Dispos, 2012):

Experiments:
Format in all cases: ADME
Liver microsome [1] = assay: Drug metabolism in human liver microsomes treated with lopinavir at 30 uM preincubated for 5 mins prior NADPH addition measured after 50 mins by MS/MS spectroscopy
Liver microsome [2] = assay: Retention time in human liver microsomes at 30 uM preincubated for 5 mins prior NADPH addition measured after 50 mins by UPLC-TOFMS analysis
Plasma [3] = assay: Maximum plasma concentration in healthy human at 400 mg; set-up: dose 400 mg
Plasma [4] = assay: Maximum plasma concentration in healthy human at 400 mg co-administered with 50 mg ritonavir; set-up: dose 400 mg

Row | Drug metabolism (Liver microsome [1]) | Retention_time (Liver microsome [2]) [min] | Cmax (Plasma [3]) [ng/mL] | Cmax (Plasma [4]) [ng/mL] | SMILES
1 | metabolite_detected | 4.99 |  |  | CC(C)[C@@H](C(=O)N[C@@H](Cc1ccccc1)C[C@H](O)[C@H](Cc1ccccc1)NC(=O)/C=N/NC(N)=O)N1CCCNC1=O
2 |  |  | 100 | 5500 | Cc1cccc(C)c1OCC(=O)N[C@@H](Cc1ccccc1)[C@@H](O)C[C@H](Cc1ccccc1)NC(=O)[C@H](C(C)C)N1CCCNC1=O [LOPINAVIR]
